For 1 compound, Ki and Activity results are on record in ChEMBL document CHEMBL1156728, “Allele-specific inhibition of divergent protein tyrosine phosphatases with a single small molecule” (Bioorg Med Chem, 2008).

One may read the Ki as the equilibrium dissociation constant of an inhibitor or competing ligand from its target. Read a low Ki as a stronger hold on the target.

Test [1] is described as follows: Inhibition of CCPGCC hexapeptide insertion containing TCPTP-187 mutant.
The nature of test [2]: Inhibition of CCPGCC hexapeptide insertion containing PTP1B-186 mutant.
Test [3] can be described thus: Inhibition of CCPGCC hexapeptide insertion containing HePTP-211 mutant.
Test [4] is described as follows: Inhibition of CCPGCC hexapeptide insertion containing FAP1-2364 mutant.
Test [5] is described as follows: Inhibition of CCPGCC hexapeptide insertion containing PTP-PEST-204 mutant.
The nature of test [6]: Inhibition of CCPGCC hexapeptide insertion containing PTPH1-816 mutant.
Test [7] is described as follows: Inhibition of CCPGCC hexapeptide insertion containing PTPalpha-406 mutant.
Test [8] is described as follows: Inhibition of CCPGCC hexapeptide insertion containing PTPH1-816 mutant at 1 uM. Particulars: TDE = time-dependent effect.
Test [9] is described as follows: Inhibition of CCPGCC hexapeptide insertion containing PTPalpha-406 mutant at 1 uM. The conditions noted are these: TDE = time-dependent effect.

`O=C(O)c1ccccc1-c1c2ccc(=O)c([As]3SCCS3)c-2oc2c([As]3SCCS3)c(O)ccc12`: the Ki was 17 nM in [1]; 46 nM in test [2]; 89 nM in [3]; 370 nM in test [4]; 53 nM in [5]; 38 nM in test [6]. This compound also yielded a Ki in test [7] of 39 nM. Moreover, the Activity result in [8] and in [9] was “tde” throughout.
